Test results reported in patent US11466023B2, “Combination of a Mcl-1 inhibitor and a standard of care treatment for hematologic cancers, uses and pharmaceutical compositions thereof” (LES LABORATOIRES SERVIER, priority 2017, dated 2022).
Like-named read-outs stand apart in the source and are kept apart here.

Key:
[1] = test system: MV4; 11 AML cell line; test: Single agent cell viability (CellTiterGlo); assay type: cell-based
Experimental: (§1) Cell lines were cultured at 37° C. in a humidified atmosphere containing 5% CO2 and expanded in T-150 flasks. […] In order to analyse the activity of the compounds as single agents, cells were seeded and treated with nine 2-fold serial dilutions of each compound dispensed individually directly into the cell assay plates. […] All the experiments were performed in triplicates. Luminescence was quantified on a multipurpose plate reader. Single agent IC50s were calculated using standard four-parametric curve fitting.

[2] = test system: MOLM-13 AML cell line; test: Single agent cell viability (CellTiterGlo); assay type: cell-based
Experimental: as §1

[3] = test system: Nomo-1 AML cell line; test: Single agent cell viability (CellTiterGlo); assay type: cell-based
Experimental: as §1

[4] = test system: THP-1 AML cell line; test: Single agent cell viability (CellTiterGlo); assay type: cell-based
Experimental: as §1

[5] = test system: EOL-1 AML cell line; test: Single agent cell viability (CellTiterGlo); assay type: cell-based
Experimental: as §1

[6] = test system: KG1 AML cell line; test: Single agent cell viability (CellTiterGlo); assay type: cell-based
Experimental: as §1

[7] = test system: KG1a AML cell line; test: Single agent cell viability (CellTiterGlo); assay type: cell-based
Experimental: as §1

[8] = test system: OCI-AML3 AML cell line; test: Single agent cell viability (CellTiterGlo); assay type: cell-based
Experimental: as §1

[9] = test system: HL-60 AML cell line; test: Single agent cell viability (CellTiterGlo); assay type: cell-based
Experimental: as §1

[10] = test system: ML-2 AML cell line; test: Single agent cell viability (CellTiterGlo); assay type: cell-based
Experimental: as §1

[11] = test system: PL-21 AML cell line; test: Single agent cell viability (CellTiterGlo); assay type: cell-based
Experimental: as §1

[12] = test system: GDM-1 AML cell line; test: Single agent cell viability (CellTiterGlo); assay type: cell-based
Experimental: as §1

[13] = test system: Kasumi-1 AML cell line; test: Single agent cell viability (CellTiterGlo); assay type: cell-based
Experimental: as §1

[14] = test system: primary AML samples; conditions: a subset of primary AML samples, 100 nM
[15] = test system: normal human CD34+ progenitor cells; conditions: 100 nM
[16] = test system: mononuclear cells from AML patient samples; test: Cell viability assay (Sytox blue flow cytometry) in primary AML samples; assay type: cell-based, human; conditions: combination at 1:1 ratio, read-out: 50% lethal concentration (LC50)
Experimental: Bone marrow samples from patients with AML were collected after informed consent in accordance with guidelines approved by The Alfred Hospital Human research ethics committee.
Mononuclear cells were isolated by density-gradient centrifugation Ficoll-Hypaque (GE Healthcare, Australia) density-gradient centrifugation and red cell lysis was performed using 0.156 M NH4Cl, 0.017 M Tris-HCl pH 7.2 as previously described (Rijal et al., Blood 2015, 125, 2815-2824). Cells were then re-suspended in phosphate-buffered saline containing 2% Fetal Bovine serum (FBS; Sigma, Australia). Mononuclear cells were then suspended in RPMI-1640 (GIBCO, Australia) medium containing penicillin and streptomycin (GIBCO) and heat inactivated fetal bovine serum 15% (Sigma). Cells were washed in phosphate-buffered saline (PBS) containing 2% FBS prior to use.
Freshly purified mononuclear cells from AML patient samples were adjusted to a concentration of 2.5×10^5/mL and 100 μL of cells aliquoted per well into 96 well plates (Sigma). Cells were then treated with idarubicin and Compound 2 over a […] concentration range from 1 nM to 10 μM for 48 hours. For combinations assays, drugs were added at a 1:1 ratio from 1 nM to 10 μM and cells were incubated at 37° C. 5% CO2. Cells were then stained with Sytox blue nucleic acid stain (Invitrogen, Australia) and fluorescence measured by flow cytometric analysis using the LSR-II Fortessa (Becton Dickinson, Australia). FACSDiva software was used for data collection, and FlowJo software for analysis. Blast cells were gated using forward and side scatter properties. Viable cells excluding Sytox blue were determined at 6 concentrations for each drug and the 50% lethal concentration (LC50, in μM) determined.

[17] = MV4, 11, single agent, 3 days incubation, CellTiterGlo, read-out: IC50
[18] = MOLM-13, single agent, 3 days incubation, CellTiterGlo, read-out: IC50
[19] = Nomo-1, single agent, 3 days incubation, CellTiterGlo, read-out: IC50
[20] = THP-1, single agent, 3 days incubation, CellTiterGlo, read-out: IC50
[21] = EOL-1, single agent, 3 days incubation, CellTiterGlo, read-out: IC50
[22] = KG1, single agent, 3 days incubation, CellTiterGlo, read-out: IC50
[23] = KG1a, single agent, 3 days incubation, CellTiterGlo, read-out: IC50
[24] = OCI-AML3, single agent, 3 days incubation, CellTiterGlo, read-out: IC50
[25] = HL-60, single agent, 3 days incubation, CellTiterGlo, read-out: IC50
[26] = ML-2, single agent, 3 days incubation, CellTiterGlo, read-out: IC50
[27] = PL-21, single agent, 3 days incubation, CellTiterGlo, read-out: IC50
[28] = GDM-1, single agent, 3 days incubation, CellTiterGlo, read-out: IC50
[29] = Kasumi-1, single agent, 3 days incubation, CellTiterGlo, read-out: IC50

## COc1ccccc1-c1nccc(COc2ccccc2C[C@@H](Oc2ncnc3sc(-c4ccc(F)cc4)c(-c4ccc(OCCN5CCN(C)CC5)c(Cl)c4C)c23)C(=O)O)n1 [Compound 1, (2R)-2-{[(5Sa)-5-{3-chloro-2-methyl-4-[2-(4-methylpiperazin-1-yl)ethoxy]phenyl}-6-(4-fluorophenyl)thieno[2,3-d]pyrimidin-4-yl]oxy}-3-(2-{[2-(2-methoxyphenyl)pyrimidin-4-yl]methoxy}phenyl)propanoic acid]
[1]; [17]
  IC50: 0.001 µM
[2]; [18]
  IC50: 0.002 µM
[3]; [19]
  IC50: 0.013 µM
[4]; [20]
  IC50: 0.017 µM
[5]; [21]
  IC50: 0.001 µM
[6]; [22]
  IC50: 0.39 µM
[7]; [23]
  IC50: 2 µM
[8]; [24]
  IC50: 0.146 µM
[9]; [25]
  IC50: 0.025 µM
[10]; [26]
  IC50: 0.005 µM
[11]; [27]
  IC50: 0.065 µM
[12]; [28]
  IC50: 0.008 µM
[13]; [29]
  IC50: 0.033 µM

## Cc1c(-c2c(-c3ccc(F)o3)sc3ncnc(O[C@H](Cc4ccccc4OCc4ccnn4CC(F)(F)F)C(=O)O)c23)ccc(OCCN2CCN(C)CC2)c1Cl [Compound 2, (2R)-2-{[(5Sa)-5-{3-chloro-2-methyl-4-[2-(4-methylpiperazin-1-yl)ethoxy]phenyl}-6-(5-fluorofuran-2-yl)thieno[2,3-d]pyrimidin-4-yl]oxy}-3-(2-{[1-(2,2,2-trifluoroethyl)-1H-pyrazol-5-yl]methoxy}phenyl)propanoic acid]
[1]; [17]
  IC50: 0.001 µM
[2]; [18]
  IC50: 0.004 µM
[3]; [19]
  IC50: 0.022 µM
[4]; [20]
  IC50: 0.051 µM
[5]; [21]
  IC50: 0.002 µM
[6]; [22]
  IC50: 0.413 µM
[7]; [23]
  IC50: 2.2 µM
[8]; [24]
  IC50: 0.34 µM
[9]; [25]
  IC50: 0.086 µM
[10]; [26]
  IC50: 0.022 µM
[11]; [27]
  IC50: 0.238 µM
[12]; [28]
  IC50: 0.027 µM
[13]; [29]
  IC50: 0.066 µM
[14]
  clonogenic growth: resistant
[15]
  clonogenic growth: resistant
[16]; Patient AML 6200840, 48 hours
  CC50: 0.227 µM
[16]; Patient AML AH0131936, 48 hours
  CC50: 10.7 µM
[16]; Patient AML AH0465385, 48 hours
  CC50: 23 µM
[16]; Patient AML AH0607688, 48 hours
  CC50: 22.9 µM
[16]; Patient AML AH0979006, 48 hours
  CC50: 0.0618 µM
[16]; Patient AML AH1081582, 48 hours
  CC50: 4.36 µM
[16]; Patient AML AH1228742, 48 hours
  CC50: 5360 µM
[16]; Patient AML AH6120264, 48 hours
  CC50: 0.679 µM
[16]; Patient AML AH6181414_2, 48 hours
  CC50: 15.5 µM
[16]; Patient AML AH6202849, 48 hours
  CC50: 13 µM
[16]; Patient AML AH6208160, 48 hours
  CC50: 21.6 µM
[16]; Patient AML AH6208654, 48 hours
  CC50: 9.42 µM
[16]; Patient AML AH6210946, 48 hours
  CC50: 0.0556 µM
[16]; Patient AML AH6214498, 48 hours
  CC50: 0.000868 µM
[16]; Patient AML AH6217528, 48 hours
  CC50: 1.16 µM
[16]; Patient AML AH6219953, 48 hours
  CC50: 38.8 µM
[16]; Patient AML AH6220847, 48 hours
  CC50: 0.21 µM
[16]; Patient AML AH6223646, 48 hours
  CC50: 0.148 µM
[16]; Patient AML AH6224104, 48 hours
  CC50: 608 µM
[16]; Patient AML AH6229985, 48 hours
  CC50: 0.00483 µM
[16]; Patient AML AH6607085, 48 hours
  CC50: 0.143 µM
[16]; Patient AML AH6615742, 48 hours
  CC50: 14.5 µM
[16]; Patient AML AH6627892, 48 hours
  CC50: 14.2 µM

## Nc1ncn([C@H]2C[C@H](O)[C@@H](CO)O2)c(=O)n1 [Decitabine, decitabine]
[1]; Homo sapiens, MV4-11, 72 h
  IC50: 0.4 µM
[2]; Homo sapiens, MOLM-13, 72 h
  IC50: 0.4 µM
[3]; Homo sapiens, NOMO-1, 72 h
  IC50: > 5 µM
[4]; Homo sapiens, THP-1, 72 h
  IC50: > 30 µM
[5]; Homo sapiens, EOL1, 72 h
  IC50: 0.49 µM
[6]; 72 h
  IC50: 5.8 µM
[7]; Homo sapiens, KG-1a, 72 h
  IC50: 14 µM
[8]; Homo sapiens, OCI-AML-3, 72 h
  IC50: 8 µM
[9]; Homo sapiens, HL-60, 72 h
  IC50: 14 µM
[10]; 72 h
  IC50: 14 µM
[11]; PL-21, 72 h
  IC50: > 5 µM
[12]; Homo sapiens, GDM-1, 72 h
  IC50: 41 µM
[13]; Homo sapiens, Kasumi 1, 72 h
  IC50: 5.5 µM
